In PMC3543423, “Structure Prediction and Validation of the ERK8 Kinase Domain” (PLoS ONE, 2013):

Target: T1, ERK8 (Homo sapiens, UniProt Q8TD08)
T1 construct: gene MAPK15; full-length GST-ERK8 (baculovirus-expressed, GST-ERK8Bac)
T1 sequence (Q8TD08 1-544): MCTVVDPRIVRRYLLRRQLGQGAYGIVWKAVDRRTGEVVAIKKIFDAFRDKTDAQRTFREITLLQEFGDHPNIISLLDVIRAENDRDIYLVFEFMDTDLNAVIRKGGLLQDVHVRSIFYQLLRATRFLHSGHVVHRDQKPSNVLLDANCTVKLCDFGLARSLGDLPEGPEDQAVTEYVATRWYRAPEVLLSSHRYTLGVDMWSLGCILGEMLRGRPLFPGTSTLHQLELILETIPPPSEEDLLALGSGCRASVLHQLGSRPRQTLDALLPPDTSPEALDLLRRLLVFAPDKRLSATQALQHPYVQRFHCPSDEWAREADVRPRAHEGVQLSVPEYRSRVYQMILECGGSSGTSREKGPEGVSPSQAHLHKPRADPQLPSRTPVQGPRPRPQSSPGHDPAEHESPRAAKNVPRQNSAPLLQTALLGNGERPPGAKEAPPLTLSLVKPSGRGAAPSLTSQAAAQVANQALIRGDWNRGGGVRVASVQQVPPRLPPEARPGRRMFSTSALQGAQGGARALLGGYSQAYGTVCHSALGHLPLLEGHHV
Assay: radiometric [γ-32P]ATP kinase assay with MBP substrate, dose/response; ATP competition; reduced inhibition of F92I mutant
Type: biochemical

Compound	IC50 [µM]
CCOC(=O)c1c(C(=O)CSc2nc(-c3ccccc3)cc(-c3ccc(OC)cc3)c2C#N)sc2c1CCCC2 [ITT53]	27
COc1ccccc1NC(=O)c1cccc(Nc2nc(-c3ccccc3)c3cc(Br)ccc3n2)c1 [ITT57]	17
